Experimental data as given in paper PMC11070402, “New antiproliferative 3-substituted oxindoles inhibiting EGFR/VEGFR-2 and tubulin polymerization” (Molecular Diversity, 2023).
Values joined by “and” are separate entries in the source; they are usually repeats but may differ in a detail not shown here. Equal entries are not always repeated. Where two headings read alike, the source gives them in different places.

Assays:
NCI-H23 = test: NCI one-dose assay, NCI-H23; assay type: cell-based; settings: Homo sapiens; NCI-H23; 10 µM single dose, 48 h incubation; read-out: cell growth inhibition % (GI %)
Method: (§1) All novel scaffolds 6a–j were carefully selected by the National Cancer Institute (NCI), Bethesda, USA, to elucidate their cytotoxic activity versus 60 human cancer cell lines at 10 µM as a single-dose concentration after a 48 h incubation period.
(§2) National Cancer Institution selected all the synthesized 6a–j (NCI), Bethesda, USA, for in vitro one-dose antitumor assay. The methodology protocol for the NCI anticancer screening was reported in detail elsewhere (http://www.dtp.nci.nih.gov). The anticancer assay was performed in full NCI 60 cell lines extracted from nine tumor cell lines, including leukemia, melanoma, lung, colon, CNS, ovarian, renal, prostate, and breast cancer cell lines.

A549/ATCC = test: NCI one-dose assay, A549/ATCC; assay type: cell-based; settings: Homo sapiens, 10 µM single dose, 48 h incubation, read-out: cell growth inhibition % (GI %)
Method: as §1, §2

MOLT-4 = test: NCI one-dose assay, MOLT-4; assay type: cell-based; settings: Homo sapiens; MOLT-4; 10 µM single dose, 48 h incubation; read-out: cell growth inhibition % (GI %)
Method: as §1, §2

UO-31 = test: NCI one-dose assay, UO-31; assay type: cell-based; settings: Homo sapiens; UO-31; 10 µM single dose, 48 h incubation; read-out: cell growth inhibition % (GI %)
Method: as §1, §2

K-562 = test: NCI one-dose assay, K-562; assay type: cell-based; settings: Homo sapiens, K562; K-562; 10 µM single dose, 48 h incubation; read-out: cell growth inhibition % (GI %)
Method: as §1, §2

[1] = test system: 60 human cancer cell lines; test: NCI one-dose assay against sixty NCI cancer cell lines; assay type: cell-based
Method: as §1, §2

SR = test: NCI one-dose assay, SR; assay type: cell-based; settings: Homo sapiens; SR; 10 µM single dose, 48 h incubation; read-out: cell growth inhibition % (GI %)
Method: as §1, §2

SK-MEL-5 = test: NCI one-dose assay, SK-MEL-5; assay type: cell-based; settings: Homo sapiens; SK-MEL-5; 10 µM single dose, 48 h incubation; read-out: cell growth inhibition % (GI %)
Method: as §1, §2

[2] = test system: SNB-75 cells (CNS cancer cell line); test: NCI one-dose assay, SNB-75; assay type: cell-based; settings: Homo sapiens; SNB-75 (CNS Cancer), 10 uM single dose; read-out: Growth inhibition %
Method: as §1, §2

LOX IMVI = test: NCI one-dose assay, LOX IMVI; assay type: cell-based; settings: Homo sapiens; LOX IMVI; 10 µM single dose, 48 h incubation; read-out: cell growth inhibition % (GI %)
Method: as §1, §2

T-47D = test: NCI one-dose assay, T-47D; assay type: cell-based; settings: Homo sapiens, T47D; T-47D; 10 µM single dose, 48 h incubation; read-out: cell growth inhibition % (GI %)
Method: as §1, §2

[3] = test system: MCF-7 (human breast cancer); test: Cytotoxicity versus MCF-7 cell line (MTT assay); settings: MCF7, read-out: MCF-7 (IC50 ± SD, uM)
Method: IC50 values were recorded using the Boltzman sigmoidal concentration–response curve equation using the nonlinear regression fitting models by GraphPad, Prism version 5 (GraphPad Software Inc., La Jolla, CA). MTT assay for MCF-7 cell lines. Cell line cells were obtained from American Type Culture Collection. Cells were cultured using DMEM media (Invitrogen/Life Technologies) supplemented with 10% FBS (Hyclone), 10 ug/ml of insulin (Sigma), and 1% penicillin–streptomycin. All the other chemicals and reagents were purchased from Sigma or Invitrogen. Cells were seeded in plates (cells density 1.2–1.8 × 10,000 cells/well) in a volume of 100 μl full-growth medium + 100 μl of the tested scaffold per well in a 96-well plate for 24 h before the application of the MTT assay protocol as reported, supplementary information.

[4] = test system: HOP-92 (non-small cell lung cancer cell line); test: NCI one-dose assay, HOP-92; assay type: cell-based; settings: Homo sapiens; HOP-92 (Non-Small Cell Lung Cancer), 10 uM single dose; read-out: Growth inhibition %
Method: as §1, §2

MCF-7 = test: NCI one-dose assay, MCF-7; assay type: cell-based, human; settings: MCF-7, 10 µM single dose, 48 h incubation
Method: as §1, §2

`O=C1Nc2cc(Cl)ccc2C1=Cc1ccc(OCC(=O)c2ccc(Br)cc2)cc1` [Compound 6g, 6-Chloro-3-{4-[2-(4-bromophenyl)-2-oxoethoxy]benzylidene}indolin-2-one] was tested, and the inhibition at 10 µM (NCI-H23) was 46.8%, the inhibition at 10 µM (A549/ATCC) was 49.9% and the inhibition at 10 µM (MOLT-4) was 61.6%. The inhibition at 10 µM (UO-31) was 59.4%, the inhibition at 10 µM (K-562) was 58.3% and the inhibition at 10 µM ([1]; 786-0 (Renal Cancer), 10 uM single dose, read-out: Growth inhibition %) was 15.6%. For the same compound, the inhibition at 10 µM ([1]; ACHN (Renal Cancer), 10 uM single dose, read-out: Growth inhibition %) was 31.2%, the inhibition at 10 µM ([1]; BT-549 (Breast Cancer), 10 uM single dose, read-out: Growth inhibition %) was 44.3% and the inhibition at 10 µM ([1]; CAKI-1 (Renal Cancer), 10 uM single dose, read-out: Growth inhibition %) was 47.6%. The inhibition at 10 µM ([1]; CCRF-CEM (Leukemia), 10 uM single dose, read-out: Growth inhibition %) was 34.3%, the inhibition at 10 µM ([1]; COLO 205 (Colon Cancer), 10 uM single dose, read-out: Growth inhibition %) was 44.7% and the inhibition at 10 µM ([1]; DU-145 (Prostate Cancer), 10 uM single dose, read-out: Growth inhibition %) was 12.4%. The inhibition at 10 µM ([1]; EKVX (Non-Small Cell Lung Cancer), 10 uM single dose, read-out: Growth inhibition %) was 43.8%, the inhibition at 10 µM ([1]; HCC-2998 (Colon Cancer), 10 uM single dose, read-out: Growth inhibition %) was 17.5% and the inhibition at 10 µM ([1]; HCT-15 (Colon Cancer), 10 uM single dose, read-out: Growth inhibition %) was 46.9%. It also gave an inhibition at 10 µM ([1]; HCT-116 (Colon Cancer), 10 uM single dose, read-out: Growth inhibition %) of 42.1%, an inhibition at 10 µM ([1]; HL-60(TB) (Leukemia), 10 uM single dose, read-out: Growth inhibition %) of 53.8% and an inhibition at 10 µM ([1]; HS 578T (Breast Cancer), 10 uM single dose, read-out: Growth inhibition %) of 22.4%. The inhibition at 10 µM ([1]; HT-29, HT29 (Colon Cancer), 10 uM single dose, read-out: Growth inhibition %) was 16.1%, the inhibition at 10 µM ([1]; IGROV-1, IGROV1 (Ovarian Cancer), 10 uM single dose, read-out: Growth inhibition %) was 34.6% and the inhibition at 10 µM ([1]; KM12 (Colon Cancer), 10 uM single dose, read-out: Growth inhibition %) was 28.7%. For the same compound, the inhibition at 10 µM ([1]; M14 (Melanoma), 10 uM single dose, read-out: Growth inhibition %) was 31.1%, the inhibition at 10 µM ([1]; MALME-3M (Melanoma), 10 uM single dose, read-out: Growth inhibition %) was 12.9% and the inhibition at 10 µM ([1]; MDA-MB-231, read-out: Growth inhibition %) was 23.4%. The inhibition at 10 µM ([1]; MDA-MB-435 (Melanoma), 10 uM single dose, read-out: Growth inhibition %) was 24.8%, the inhibition at 10 µM ([1]; MDA-MB-468 (Breast Cancer), 10 uM single dose, read-out: Growth inhibition %) was 42.3% and the inhibition at 10 µM ([1]; NCI-H226 (Non-Small Cell Lung Cancer), 10 uM single dose, read-out: Growth inhibition %) was 37.9%. It also gave an inhibition at 10 µM ([1]; NCI-H322M (Non-Small Cell Lung Cancer), 10 uM single dose, read-out: Growth inhibition %) of 18.1%, an inhibition at 10 µM ([1]; NCI-H460 (Non-Small Cell Lung Cancer), 10 uM single dose, read-out: Growth inhibition %) of 41% and an inhibition at 10 µM ([1]; NCI-H522 (Non-Small Cell Lung Cancer), 10 uM single dose, read-out: Growth inhibition %) of 49.4%. For the same compound, the inhibition at 10 µM ([1]; OVCAR-3 (Ovarian Cancer), 10 uM single dose, read-out: Growth inhibition %) was 15.7%, the inhibition at 10 µM ([1]; OVCAR-4 (Ovarian Cancer), 10 uM single dose, read-out: Growth inhibition %) was 44.5% and the inhibition at 10 µM ([1]; OVCAR-5 (Ovarian Cancer), 10 uM single dose, read-out: Growth inhibition %) was 13.9%. The inhibition at 10 µM ([1]; OVCAR-8 (Ovarian Cancer), 10 uM single dose, read-out: Growth inhibition %) was 30.7%, the inhibition at 10 µM ([1]; PC-3 (Prostate Cancer), 10 uM single dose, read-out: Growth inhibition %) was 51.4% and the inhibition at 10 µM ([1]; RPMI-8226 (Leukemia), 10 uM single dose, read-out: Growth inhibition %) was 43.6%. It also gave an inhibition at 10 µM ([1]; RXF 393 (Renal Cancer), 10 uM single dose, read-out: Growth inhibition %) of 44.8%, an inhibition at 10 µM ([1]; SF-268 (CNS Cancer), 10 uM single dose, read-out: Growth inhibition %) of 22% and an inhibition at 10 µM ([1]; SF-295 (CNS Cancer), 10 uM single dose, read-out: Growth inhibition %) of 45.1%. The inhibition at 10 µM ([1]; SF-539 (CNS Cancer), 10 uM single dose, read-out: Growth inhibition %) was 30.6%, the inhibition at 10 µM ([1]; SK-MEL-2 (Melanoma), 10 uM single dose, read-out: Growth inhibition %) was 29.8% and the inhibition at 10 µM ([1]; SK-MEL-28 (Melanoma), 10 uM single dose, read-out: Growth inhibition %) was 19.4%. It also gave an inhibition at 10 µM ([1]; SN12C (Renal Cancer), 10 uM single dose, read-out: Growth inhibition %) of 45.2%, an inhibition at 10 µM ([1]; SNB-19 (CNS Cancer), 10 uM single dose, read-out: Growth inhibition %) of 18.5% and an inhibition at 10 µM ([1]; SW-620 (Colon Cancer), 10 uM single dose, read-out: Growth inhibition %) of 14.1%. For the same compound, the inhibition at 10 µM ([1]; U-251, U251 (CNS Cancer), 10 uM single dose, read-out: Growth inhibition %) was 25.8%, the inhibition at 10 µM ([1]; UACC-62 (Melanoma), 10 uM single dose, read-out: Growth inhibition %) was 42% and the inhibition at 10 µM ([1]; UACC-257 (Melanoma), 10 uM single dose, read-out: Growth inhibition %) was 27.1%. It also gave an inhibition at 10 µM (SR) of 59.7%, an inhibition at 10 µM (SK-MEL-5) of 61.2% and an inhibition at 10 µM [2] of 31.1%. It also gave an inhibition at 10 µM (LOX IMVI) of 45.8%, an inhibition at 10 µM (T-47D) of 55.2% and an IC50 [3] of 25.4 ± 1.23 µM. The inhibition at 10 µM [4] was 30.8%, the inhibition at 10 µM (MCF-7; Homo sapiens, MCF7, 48 h, read-out: cell growth inhibition % (GI %)) was 70.3% and the “cell growth inhibition % (GI %)” value (MCF-7) was 70.03% and 71.12%.
